Patent US12593845B2 (priority 2019, dated 2026)

Experiments:
Aspergillus niger = assay: Antimicrobial test against Aspergillus niger; format: cell-based; conditions: 96 h, Vogel medium, 25° C., 4 days in the dark, turbidity at 405 nm, read-out: growth inhibition rate
Procedure, shortened: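 A. niger spores dispersed in Vogel medium with compound (DMSO solution) at 25 ppm, cultured in the dark at 25° C. for 4 days. Turbidity at 405 nm compared with untreated culture to give growth inhibition (%).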

[1] = system: wheat brown rust pathogen (Puccinia recondita); assay: Wheat brown rust control test; format: in vivo; conditions: 288 h, 125 ppm drug solution sprayed onto wheat seedlings (Norin 61), lesion area ratio 12 days after inoculation
Description: (§1) 5 parts by weight of the dihydropyrimidine compound of the present invention, 93.5 parts by weight of N,N-dimethylformamide, and 1.5 parts by weight of polyoxyethylene sorbitan monolaurate (TWEEN® 20) were mixed and dissolved to obtain an emulsion (I) including 5% of an active ingredient.
(§2) The control value was calculated by the following expression. Control value (%)=100−{lesion area ratio in treated group/lesion area ratio in untreated group}×100 [Expression 1]
Water was added to the emulsion (I) such that the concentration of the dihydropyrimidine compound reached 125 ppm to dissolve the emulsion, and a drug solution was obtained. Subsequently, the drug solution was sprayed onto wheat seedlings (variety: “Norin 61”, leaf stage: 1 to 2) cultivated in seedling pots. After air drying, uredospores of a wheat brown rust pathogen (Puccinia recondita) were sprinkled on wheat seedlings sprayed with the drug solution for inoculation (treated group). As a control, wheat seedlings that were not sprayed with the drug solution were inoculated in the same manner as described above (untreated group). The seedlings were left to stand in a greenhouse at 20° C.
On the 12 days after the inoculation, the leaves of the wheat seedlings were visually observed to determine the lesion area ratio, and the control value was calculated.

[2] = system: wheat powdery mildew pathogen (Erysiphe graminis f. sp. tritici); assay: Wheat powdery mildew control test; format: in vivo; conditions: Blumeria graminis, 144 h; 125 ppm drug solution sprayed onto wheat seedlings (Chihoku); lesion area ratio 6 days after inoculation
Description: as §1, §2
Water was added to the emulsion (I) such that the concentration of the dihydropyrimidine compound reached 125 ppm to dissolve the emulsion, and a drug solution was obtained. Subsequently, the drug solution was sprayed onto wheat seedlings (variety: “Chihoku”, leaf stage: 1 to 2) cultivated in seedling pots. After air drying, conidiospores of a wheat powdery mildew pathogen (Erysiphe graminis f. sp. tritici) were sprinkled thereon for inoculation (treated group). As a control, wheat seedlings that were not sprayed with the drug solution were inoculated in the same manner as described above (untreated group). The seedlings were left to stand in a greenhouse at 20° C.
On the 6 days after the inoculation, the leaves of the wheat seedlings were visually observed to determine the lesion area ratio, and the control value was calculated.

[3] = system: apple scab pathogen (Venturia inaequalis); assay: Apple scab control test; format: in vivo; conditions: 336 h, 125 ppm drug solution sprayed onto apple seedlings (Orin), lesion area ratio 2 weeks after inoculation
Procedure, shortened: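 Compound emulsion diluted in water to 125 ppm and sprayed on 3-4 leaf 'Orin' apple seedlings, which were inoculated with V. inaequalis conidiospores after drying and held humidified at 20° C, 12 h light/dark. Lesion area ratio scored 2 weeks post-inoculation; control value computed relative to unsprayed inoculated plants.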

[4] = system: wheat powdery mildew pathogen (Erysiphe graminis f. sp. tritici); assay: Wheat powdery mildew seed treatment test; format: in vivo; conditions: Blumeria graminis, 168 h; seed treatment 100 g/100 kg wheat seeds (Chihoku); inoculation after 8 to 10 days; lesion area ratio 7 days after inoculation
Description: as §1, §2
The emulsion (I) was used to treat seeds such that (weight of dihydropyrimidine compound)/(weight of seeds) reached 100 g/100 kg based on the wheat seeds (variety: “Chihoku”). These seeds were disseminated in pots, and after 8 to 10 days, conidiospores of a wheat powdery mildew pathogen (Erysiphe graminis f. sp. tritici) were sprinkled thereon for inoculation (treated group). As a control, wheat seedlings that were not treated with the drug were inoculated in the same manner as described above (untreated group). The seedlings were left to stand in a greenhouse at 20° C.
On the 7 days after the inoculation, the leaves of the wheat seedlings were visually observed to determine the lesion area ratio, and the control value was calculated.

Row | SMILES | inhibition at 25 ppm (Aspergillus niger) [%] | pest or weed control at 125 ppm [1] [%] | pest or weed control at 125 ppm [2] [%] | pest or weed control at 125 ppm [3] [%] | pest or weed control at 100 g/100 kg seed [4] [%]
1 | COc1ccc(F)cc1C(Cn1cc(/C(C)=N/OC(C)C)c(=O)n(CC(C)(C)C(=O)NC(C)C)c1=O)OCCC#N (centres unmarked) [A-1] | ≥ 50 | ≥ 75 | ≥ 75 | ≥ 75 | –
2 | COc1ccc(F)cc1C(Cn1cc(C=NOC(C)C)c(=O)n(C(C)C(=O)NC(C)C)c1=O)OCCC#N (centres unmarked) [A-14, 2-(3-(2-(2-cyanoethoxy)-2-(5-fluoro-2-methoxyphenyl)ethyl)-5-((isopropoxyimino)methyl)-2,6-dioxo-3,6-dihydropyrimidin-1(2H)-yl)-N-isopropylpropanamide] | ≥ 50 | ≥ 75 | ≥ 75 | ≥ 75 | –
3 | CCON=Cc1cn(CC(OCCC#N)c2cc(F)ccc2OC)c(=O)n(C(C)C(=O)NC(C)C)c1=O (centres unmarked) [A-23] | ≥ 50 | ≥ 75 | ≥ 75 | ≥ 75 | –
4 | CCO/N=C(\C)c1cn(CC(OCCC#N)c2cc(F)ccc2OC)c(=O)n(CC(C)(C)C(=O)NC(C)C)c1=O (centres unmarked) [A-24] | ≥ 50 | ≥ 75 | ≥ 75 | ≥ 75 | –
5 | COc1ccc(F)cc1C(Cn1cc(/C(C)=N/OC(C)C)c(=O)n(C[C@H](C)NC(=O)C(C)C)c1=O)OC (some centres unmarked) [A-61] | ≥ 50 | ≥ 75 | ≥ 75 | ≥ 75 | ≥ 75
6 | COc1ccc(F)cc1C(Cn1cc(/C(C)=N/OC(C)C)c(=O)n(C[C@H](C)NC(=O)C(C)C)c1=O)OCCC#N (some centres unmarked) [A-63] | ≥ 50 | ≥ 75 | ≥ 75 | ≥ 75 | –
7 | C=C1CCN(C(=O)C(C)n2c(=O)c(C=NOC(C)C)cn(CC(O)c3cc(F)ccc3OC)c2=O)CC1 (centres unmarked) [A-70] | – | ≥ 75 | ≥ 75 | ≥ 75 | –
8 | COc1ccc(F)cc1C(Cn1cc(C=NOC(C)C)c(=O)n(C(C)C(=O)NC2CC2)c1=O)OCCC#N (centres unmarked) [A-80] | ≥ 50 | ≥ 75 | ≥ 75 | ≥ 75 | –
9 | CCON=Cc1cn(CC(OC)c2cc(F)ccc2OC)c(=O)n(C(C)C(=O)NC(C)C)c1=O (centres unmarked) [A-91] | – | ≥ 75 | ≥ 75 | ≥ 75 | –
10 | COc1ccc(F)cc1C(O)Cn1cc(C=NOC(C)C)c(=O)n(C(C)C(=O)NC(C)C)c1=O (centres unmarked) [A-93] | ≥ 50 | ≥ 75 | ≥ 75 | ≥ 75 | –
11 | C=CCOC(Cn1cc(/C(C)=N/OCC)c(=O)n(CCNC(=O)C(C)C)c1=O)c1cc(F)ccc1OC (centres unmarked) [A-95] | ≥ 50 | ≥ 75 | ≥ 75 | ≥ 75 | –
12 | COc1ccc(F)cc1C(Cn1cc(/C(C)=N/OC(C)C)c(=O)n(CCN(C)C(=O)C(C)C)c1=O)OC (centres unmarked) [A-99] | – | ≥ 75 | ≥ 75 | ≥ 75 | –
13 | COc1ccc(F)cc1C(Cn1cc(/C(C)=N/OC(C)C)c(=O)n(CCNC(=O)C(C)C)c1=O)OC (centres unmarked) [A-100] | ≥ 50 | ≥ 75 | ≥ 75 | ≥ 75 | –
